Read-outs that look alike come from different tables or passages of the source. Marks after values point to notes of the source that are not given here.
Key:
786-O cell line = experiment: Cytotoxicity in vitro (MTT) in the presence and absence of elastase, 786-O; type: cell-based
Method: (§1) Cultivation of cells was performed according to standard procedures with the media recommended by the provider. The cells in a total volume of 100 μL were seeded in a 96-well plate with white bottom (#3610). After a 24 h incubation period at 37° C. and 5% CO2, the medium was changed by adding 90 μL fresh medium. The treatment starts by adding the test compound to the cells in 10 μl of culture medium. Concentrations from 10^−5 M to 10^−13 M in triplicates were chosen followed by an incubation at 37° C. and 5% carbon dioxide. One set of samples were only treated with the test compound whereas to an otherwise identically treated second set of samples also 10 nM elastase was pipetted. After 72 h. the proliferation is detected using the MTT assay (ATCC). At the end of the incubation period the MTT reagent is added to all samples for 4 h, followed by lysis of the cells overnight by addition of the detergent. The dye formed was detected at 570 nm. The proliferation of cells which were not treated with test substance but were otherwise identically treated was defined as the 100% value. (FIG. 1 and table 4).

[1] = system: NCI-H69 xenograft (lung cancer); experiment: In vivo xenotransplantation study, NCI-H69; set-up: species or system mice; conditions: NCI-H69, 40 mg/kg i.v., 3 days on, 4 days off, 3 cycles; mean tumor area
Method: (§2) For this purpose, immunocompromised mice were implanted subcutaneously with tumor cells or tumor fragments. […] Intravenous treatments were performed on three consecutive days once daily followed by four days drug holiday without treatments. The tumor size and the body weight were determined at least weekly. The tumor area was detected by means of an electronic caliper [length (mm)×width (mm)]. The experimental groups were ended when the group reached the pre-determined ethical endpoint based on German and European animal welfare regulations. In vivo anti-tumor efficacy is presented as T/C ratio of mean tumor area measured for treatment and control group on the last day at which the vehicle control remained in study (Treatment/Control; mean tumor area of treatment group/mean tumor area of control group. A compound having a T/C below 0.5 is defined as active (i.e., effective). Statistical analysis was assessed using SigmaStat software. A one-way analysis of variance was performed and differences to the control were compared by a pair-wise comparison procedure (Dunn's method).

[2] = system: 786-O xenograft (renal cancer); experiment: In vivo xenotransplantation study, 786-O; set-up: species or system mice; conditions: 36 mg/kg i.v., 3 days on, 4 days off, 3 cycles, mean tumor area
Method: as §2

αvβ3 receptor = biological target: T1, αvβ3 receptor (Homo sapiens, UniProt P05106+P06756); experiment: αvβ3 binding test (echistatin SPA)
T1 construct: αvβ3 from human A375 cells was purified analogously to a procedure described by Wong et al; endogenous in cells; host or cells: human A375 cells (receptor purified from the cells)
Method: αvβ3 from human A375 cells was purified analogously to a procedure described by Wong et al. in Molecular Pharmacology 50, 529-537 (1996). In each case, 10 μL of αvβ3 (5 ng) in TBS PH 7.6, 2 mM CaCl2. 1 mM MgCl2. 1% n-octylglucopyranoside (Sigma): 10 μL of test substance in TBS pH 7.6. 0.1% DMSO and 45 μL of TBS pH 7.6. 2 mM CaCl2, 1 mM MgCl2, 1 mM MnCl2 were incubated at room temperature for 1 h. In each case, 25 μL of WGA SPA beads (Amersham, 4 mg/ml) and 10 μL of echistatin (0.1 μCi, Amersham, chloramine-T labelled) were then added. After 16 h at room temperature, the samples were measured in a scintillation measuring apparatus (Wallac 1450).

[3] = system: SW-480 xenograft (colon cancer); experiment: In vivo xenotransplantation study, SW-480; set-up: species or system mice; conditions: SW-480, 36 mg/kg i.v., 3 days on, 4 days off, 3 cycles; mean tumor area
Method: as §2

HT29 cell line = experiment: Cytotoxicity in vitro (MTT) in the presence and absence of elastase, HT29; type: cell-based; conditions: 72 h
Method: as §1

[4] = system: MX1 xenograft (breast cancer); experiment: In vivo xenotransplantation study, MX1; set-up: species or system mice; conditions: MX1, 36 mg/kg i.v., 3 days on, 4 days off, 3 cycles; mean tumor area
Method: as §2

[5] = Stability in citric acid buffer at pH 4; type: physicochemical; conditions: 37° C., peak area
Method: Method: 0.15 mg of the test compound were solved in 0.1 ml dimethylsulfoxide and 0.4 ml acetonitrile. For complete dissolution the HPLC vial with the sample solution was shaken and sonicated. Then 1.0 ml of the respective buffer solution (Citrate buffer pH 4; citric acid/sodium hydroxide/sodium chloride Fluka 33643) was added and the sample was vortexed. The sample solution was analysed by HPLC to determine the amount of the test compound and up to two byproducts at a particular time (0, 1, 2 4, 24 hrs) over a period of 24 h at 37° C. t(0) values resulted from a sample immediately taken after vortexing with buffer at RT. The peak areas (in percentage) were used for quantification.
LC & LC/MS purity analysis: The starting material was analyzed for purity by LC; the 24 h sample was additionally analyzed by LC/MS (Waters Quattro Micro).

Solubility in vehicles = type: physicochemical; conditions: room temperature (25° C.)
Method: Method: For each vehicle to be tested. 0.5-1.0 mg test compound were weighed into a 2 ml Eppendorf vial. 2-3 Glas perls (Ø 3 mm) and 1.0 ml vehicle were added. The vial was shaken at 1400 rpm for 24 hrs at room temperature (25° C.). After this time period the supernatant (approx. 230 μl was transferred to a centrifuge tube. After 30 min at 42 000 rpm the solute was transferred to another vial and diluted with DMSO (1:5 and 1:50). These two dilutions were analyzed by HPLC (read out: area)
• Eluent A: 1 ml Trifluoro acetic acid/L water • Eluent B: 1 ml Trifluoro acetic acid/L acetonitrile • Gradient:
• Column: ZORBAX Extend-C18, 3.0×50 mm, 3, 5 μm • Oven temperature: 30° C. • Detection: 214 and 254 nm • Injection volume: 20 μl
For quantification a calibration curve was obtained from DMSO solution of the test compound ([…], 20 μg/ml and 2.5 μg/ml) by employing the same HPLC method.

[6] = Plasma stability in rat plasma; type: in vitro ADME; conditions: 37° C.
Method: For complete dissolution the HPLC vial was shaken and treated with ultrasound. 500 μl of this solution were added to 0.5 mL of rat plasma with vortexing at a temperature of 37° C. Aliquots (10 μL each) were taken at respective time points and analyzed by HPLC to determine the amount of the test compound. All data is given as percent area of the initial compound at t0.

T1 sequence (P06756 31-889 limits assumed): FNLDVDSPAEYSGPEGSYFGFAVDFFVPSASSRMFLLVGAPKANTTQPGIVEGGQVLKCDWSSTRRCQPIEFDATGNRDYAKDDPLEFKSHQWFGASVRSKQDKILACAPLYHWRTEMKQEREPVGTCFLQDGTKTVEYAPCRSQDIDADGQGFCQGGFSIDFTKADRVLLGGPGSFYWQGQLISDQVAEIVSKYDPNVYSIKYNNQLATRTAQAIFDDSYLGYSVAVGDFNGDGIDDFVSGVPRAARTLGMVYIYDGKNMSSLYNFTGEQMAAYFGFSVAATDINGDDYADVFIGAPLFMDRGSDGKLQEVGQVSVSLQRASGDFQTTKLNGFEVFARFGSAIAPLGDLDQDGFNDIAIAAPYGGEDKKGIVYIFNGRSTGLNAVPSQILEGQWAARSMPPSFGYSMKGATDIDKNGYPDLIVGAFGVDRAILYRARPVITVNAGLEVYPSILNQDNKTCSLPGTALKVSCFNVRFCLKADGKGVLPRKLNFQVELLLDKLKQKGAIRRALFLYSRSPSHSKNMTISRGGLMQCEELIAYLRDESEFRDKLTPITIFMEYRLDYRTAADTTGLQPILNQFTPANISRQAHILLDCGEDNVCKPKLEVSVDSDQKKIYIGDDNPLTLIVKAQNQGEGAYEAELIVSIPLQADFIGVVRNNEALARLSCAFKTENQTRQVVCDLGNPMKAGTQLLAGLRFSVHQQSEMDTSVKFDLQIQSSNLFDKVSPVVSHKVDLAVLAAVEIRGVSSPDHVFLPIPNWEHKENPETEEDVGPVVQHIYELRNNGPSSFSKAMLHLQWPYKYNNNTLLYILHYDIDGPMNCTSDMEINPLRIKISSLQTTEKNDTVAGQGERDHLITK
T1 sequence (P06756 891-1048 partner limits assumed): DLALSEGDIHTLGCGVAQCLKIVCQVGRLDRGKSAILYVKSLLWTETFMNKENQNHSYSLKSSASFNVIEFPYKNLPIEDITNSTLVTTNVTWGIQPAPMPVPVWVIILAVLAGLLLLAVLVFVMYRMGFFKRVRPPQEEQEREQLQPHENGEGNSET
T1 sequence (P05106 27-788): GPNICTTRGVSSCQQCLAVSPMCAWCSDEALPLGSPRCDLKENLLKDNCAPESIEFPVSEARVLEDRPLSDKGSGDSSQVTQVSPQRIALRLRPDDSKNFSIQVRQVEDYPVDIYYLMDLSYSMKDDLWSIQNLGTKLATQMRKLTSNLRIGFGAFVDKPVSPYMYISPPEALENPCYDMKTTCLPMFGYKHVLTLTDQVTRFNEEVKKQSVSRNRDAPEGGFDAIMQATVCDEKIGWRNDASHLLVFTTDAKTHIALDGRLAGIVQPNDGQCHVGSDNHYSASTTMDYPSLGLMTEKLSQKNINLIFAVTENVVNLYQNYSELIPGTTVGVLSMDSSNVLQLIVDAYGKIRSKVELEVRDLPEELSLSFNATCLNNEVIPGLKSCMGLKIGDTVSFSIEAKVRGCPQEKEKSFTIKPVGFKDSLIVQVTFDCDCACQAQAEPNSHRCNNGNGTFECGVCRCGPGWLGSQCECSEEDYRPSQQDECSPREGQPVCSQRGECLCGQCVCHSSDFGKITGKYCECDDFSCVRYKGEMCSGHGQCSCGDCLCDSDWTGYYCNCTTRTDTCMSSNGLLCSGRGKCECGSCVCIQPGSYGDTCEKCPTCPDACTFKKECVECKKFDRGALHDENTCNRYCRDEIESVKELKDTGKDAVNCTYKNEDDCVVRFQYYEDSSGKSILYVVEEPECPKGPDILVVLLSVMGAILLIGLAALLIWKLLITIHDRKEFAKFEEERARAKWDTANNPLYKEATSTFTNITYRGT

CCCNC(=O)Nc1cccc(S(=O)(=O)Nc2cccc([C@@H](CC(=O)[O-])NC(=O)Nc3ccc(NC(=O)NCCOCCOCCOCCC(=O)N[C@@H](CC(=O)[O-])C(=O)N4CCC[C@H]4C(=O)N[C@H](C(=O)O[C@]4(CC)C(=O)OCc5c4cc4n(c5=O)Cc5c-4nc4ccccc4c5CC)C(C)C)cc3)c2)c1.[Na+].[Na+] [Example 1, disodium (4S)-4,11-diethyl-3,14-dioxo-3,4,12,14-tetrahydro-1H-pyrano[3′,4′: 6,7]indolizino [1,2-b]quinolin-4-yl 1-{(2S)-2-(carboxylatomethyl)-17-[4-({[(1R)-2-carboxylato-1-{3-[({3-[(propyl-carbamoyl)amino]phenyl}sulfonyl)amino]phenyl}ethyl]carbamoyl}amino)anilino]-4,17-dioxo-7,10,13-trioxa-3,16-diazaheptadecan-1-oyl}-L-prolyl-L-valinate]
Specificity factor (786-O cell line; 786-O, IC50 w/o elastase versus w elastase): 165 | IC50 (786-O cell line; 72 h, MTT, 10 nM elastase, read-out: 786-O cell line IC50 w elastase): 1.1 nM | IC50 (786-O cell line; 72 h, MTT, without elastase, read-out: 786-O cell line IC50 w/o elastase): 188 nM | IC50 (786-O cell line; side by side comparison, elastase with higher enzymatic activity used, read-out: 786-O cell line IC50 w elastase): 0.17 nM | IC50 (786-O cell line; side by side comparison, without elastase, read-out: 786-O cell line IC50 w/o elastase): 28 nM | T/C [1]: 0.06* | T/C [2]: 0.19* | IC50 (αvβ3 receptor): 29 nM | T/C [3]: 0.1* | IC50 (HT29 cell line; 10 nM elastase, read-out: HT29 cell line IC50 w elastase): 8.7 nM | IC50 (HT29 cell line; without elastase, read-out: HT29 cell line IC50 w/o elastase): 245 nM | T/C [4]: 0.03* | Stability in citric acid buffer at pH 4, 4h ([5]; 4 h): 100% | Stability in citric acid buffer at pH 4, 24h ([5]; 24 h): 95% | solubility at 24 h (Solubility in vehicles; read-out: Solubility in 0.9% NaCl in H2O): 465 µg/mL | solubility at 24 h (Solubility in vehicles; read-out: Solubility in 5% D-Mannitol): > 500 µg/mL | stable in rat plasma for [6]: > 24 h

Source: US20240325553A1, “CYTOSTATIC CONJUGATES WITH INTEGRIN LIGANDS” (priority 2018, published 2024)
